Reference: patent publication US10370372B2, “Fused pyrimidine compound or salt thereof” (TAIHO PHARMACEUTICAL CO., LTD., priority 2015, dated 2019)
Like-named read-outs stand apart in the source and are kept apart here.

Tests used:
Type in all cases: cell-based
[1] = target: T1, human androgen receptor (Homo sapiens, UniProt P10275); assay: Antagonist activity for AR: MMTV-luc reporter transcription in COS-7 cells transfected with human AR, stimulated with DHT
T1 construct: expressed in transfected cells; host or cells: COS-7 cells (ATCC)
T1 sequence (P10275 1-920): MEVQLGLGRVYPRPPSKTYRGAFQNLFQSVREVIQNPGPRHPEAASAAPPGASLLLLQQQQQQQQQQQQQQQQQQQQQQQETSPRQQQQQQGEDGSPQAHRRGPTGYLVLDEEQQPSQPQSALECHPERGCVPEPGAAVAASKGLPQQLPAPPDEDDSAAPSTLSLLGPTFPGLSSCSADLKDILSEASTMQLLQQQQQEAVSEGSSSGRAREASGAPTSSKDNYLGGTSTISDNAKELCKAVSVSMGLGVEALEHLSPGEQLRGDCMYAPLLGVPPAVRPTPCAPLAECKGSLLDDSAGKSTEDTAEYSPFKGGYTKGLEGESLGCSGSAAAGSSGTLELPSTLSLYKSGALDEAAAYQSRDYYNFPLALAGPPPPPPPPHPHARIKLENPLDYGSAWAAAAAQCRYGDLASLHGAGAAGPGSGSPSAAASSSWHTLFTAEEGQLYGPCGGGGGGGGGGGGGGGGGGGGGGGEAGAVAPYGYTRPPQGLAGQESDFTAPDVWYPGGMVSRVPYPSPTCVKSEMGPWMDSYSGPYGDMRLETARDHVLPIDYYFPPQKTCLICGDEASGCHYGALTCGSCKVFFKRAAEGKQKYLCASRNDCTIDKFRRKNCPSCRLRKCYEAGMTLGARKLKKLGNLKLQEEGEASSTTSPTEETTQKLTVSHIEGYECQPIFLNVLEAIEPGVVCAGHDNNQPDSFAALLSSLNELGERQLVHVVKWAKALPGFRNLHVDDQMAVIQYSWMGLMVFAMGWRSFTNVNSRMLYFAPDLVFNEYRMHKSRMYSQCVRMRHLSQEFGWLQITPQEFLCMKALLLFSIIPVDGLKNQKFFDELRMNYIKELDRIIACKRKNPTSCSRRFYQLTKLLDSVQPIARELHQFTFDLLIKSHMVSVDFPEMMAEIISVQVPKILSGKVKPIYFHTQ
Protocol: Antagonist activity for AR was evaluated according to the following method. COS-7 cells (ATCC) were transfected with pMMTV-luc vector (reporter plasmid having, as an androgen response element, […] long terminal repeat) and pEX-hAR vector (human androgen receptor expression vector: which expresses human AR gene under control of CMV promoter) by using Nucleofector (registered trademark) Kit R (Lonza) as a transfection reagent and Amaxa (Lonza). The COS-7 cells obtained after transfection were seeded in a clear bottom 96 well microplate (BD) at 1.5×10^4/well with phenol red free RPMI1640 containing 10% charcoal-treated fetal bovine serum (hereinbelow, DCC-FBS) (hereinbelow, the medium is referred to as an evaluation medium), and then cultured overnight. […] Then, the transcription activity value of the reporter plasmid was measured. The transcription activity was measured by using Bright-Glo™ Luciferase Assay System (Promega).

[2] = test system: AR positive human prostate cancer cells VCaP; assay: Agonist activity for AR: cell proliferation rate of VCaP cells; details: 5-10000 nmol/L, 72 hours, relative to evaluation medium only, more than 10% = agonist activity
Protocol: Then, the number of viable cells was measured (test group). As a control, the cells were cultured after being added with the evaluation medium only, and the number of viable cells was measured (control group). The number of viable cells was measured by using CellTiter-Glo™ Luminescent Cell Viability Assay (Promega). From the measured number of viable cells, cell proliferation rate with respect to the compound of Examples or the compound of Comparative Examples was calculated based on the number of viable cells measured in the case of using the evaluation medium only. Cell proliferation rate (%)=(Number of viable cells in test group−Number of viable cells in control group)/(Number of viable cells in control group)×100
By considering an error in the number of viable cells measured in the case of using the evaluation medium only, when the cell proliferation rate was more than 10% at any concentration of the 8 concentrations which had been evaluated, it was determined to have an agonist activity for AR.

[3] = test system: AR expression in LNCaP; assay: Activity of reducing expression level of androgen receptor (Western blotting in LNCaP); details: Homo sapiens, read-out: AR expression reducing activity
Protocol: AR positive human prostate cancer cells LNCaP were seeded in a 6 well microplate (BD) at 3.5×10^5/well with RPMI1640 containing 5% FBS (hereinbelow, the medium is referred to as an evaluation medium), and then cultured overnight. […] After culture for 48 hours, the medium was removed and the cells were washed with PBS and added with 0.1 mL of Lysis buffer (M-PER added with Protease Inhibitor Cocktail), followed by keeping at 4° C. for 20 minutes. After cell lysis, the cell solution was centrifuged to recover the supernatant as cell lysate. […] The antibody-reacting band (anti AR receptor) was quantified by LAS Imaging System (FUJIFILM) using Super Signal West Dura Substrate (Thermo Scientific) as a detection reagent.
When the AR expression reducing activity is 50% or more, it is described as “reduced”.

[4] = test system: Human prostate cancer cells LNCaP; assay: Inhibitory activity on androgen-dependent proliferation of prostate cancer cells; details: 1 nmol/L DHT, 72 hours, Cell Counting Kit-8, read-out: Proliferation inhibition concentration GI50 value
Protocol: Human prostate cancer cells LNCaP (Non-Patent Literature 5) having […] androgen receptor gene were seeded in a clear bottom 96 well microplate (BD) at 4.0×10^3/well with phenol red free RPMI1640 containing 5% DCC-FBS (hereinbelow, the medium is referred to as an evaluation medium), and then cultured overnight. […] Then, the number of viable cells was measured. The number of viable cells was measured by using Cell Counting Kit-8 (DOJINDO LABORATORIES).

[5] = COS-7 cells with pMMTV-luc and pEX-hAR, 1 nmol/L DHT, 24 hours, read-out: AR antagonist IC50
[6] = 10000 nmol/L, 48 hours, vs evaluation medium control

SMILES	IC50 [1, 5] [nM]	Cell proliferation rate (%) [2] [%]	inhibition at 10 µM ([3]; 48 h) [%]	GI50 [4] [nM]	inhibition at 10 µM [3, 6] [%]	IC50 [1] [nM]
N#Cc1ccc(N2CCc3c(ncnc3Nc3ccc(C4(O)COC4)c(F)n3)C2)cc1Cl [Example 35, 2-Chloro-4-(4-((6-fluoro-5-(3-hydroxyoxetan-3-yl)pyridin-2-yl)amino)-5,6-dihydropyrido[3,4-d]pyrimidin-7(8H)-yl)benzonitrile]	120	9.4	> 50	–	–	–
CC(C)Oc1cc(N2CCc3c(ncnc3Nc3ccc(C(C)(C)O)cn3)C2)ccc1[N+](=O)[O-] [Example 19, 2-(6-((7-(3-isopropoxy-4-nitrophenyl)-5,6,7,8-tetrahydropyrido[3,4-d]pyrimidin-4-yl)amino)pyridin-3-yl)propan-2-ol]	1300	7.8	–	220	> 50	–
N#Cc1ccc(N2CCc3c(ncnc3Nc3ccc(N4CC5(COC5)C4)cc3)C2)cc1Cl [Example 28, 4-(4-((4-(2-oxa-6-azaspiro[3.3]heptan-6-yl)phenyl)amino)-5,6-dihydropyrido[3,4-d]pyrimidin-7(8H)-yl)-2-chlorobenzonitrile]	–	1.4	> 50	680	–	680
N#Cc1ccc(N2CCc3c(ncnc3Nc3ccc(C(=O)N4CCCCCC4)cn3)C2)cc1C(F)(F)F [Example 6, 4-(4-((5-(azepane-1-carbonyl)pyridin-2-yl)amino)-5,6-dihydropyrido[3,4-d]pyrimidin-7(8H)-yl)-2-(trifluoromethyl)benzonitrile]	–	−1.0	> 50	55	–	130
CCNC(=O)c1ccc(Nc2ncnc3c2CCN(c2ccc(C#N)c(C(F)(F)F)c2)C3)nn1 [Example 10, 6-((7-(4-cyano-3-(trifluoromethyl)phenyl)-5,6,7,8-tetrahydropyrido[3,4-d]pyrimidin-4-yl)amino)-N-ethylpyridazine-3-carboxamide]	–	–	> 50	400	–	7
COc1ccc(Nc2nc(C)nc3c2CCN(c2ccc(C#N)c(C(F)(F)F)c2)C3)cc1 [Example 48, 4-(4-((4-Methoxyphenyl)amino)-2-methyl-5,6-dihydropyrido[3,4-d]pyrimidin-7(8H)-yl)-2-(trifluoromethyl)benzonitrile]	1000	−1.6	> 50	610	–	–
C#CCNC(=O)c1ccc(Nc2ncnc3c2CCN(c2ccc(C#N)c(C(F)(F)F)c2)C3)nn1 [Example 11, 6-((7-(4-cyano-3-(trifluoromethyl)phenyl)-5,6,7,8-tetrahydropyrido[3,4-d]pyrimidin-4-yl)amino)-N-(prop-2-yn-1-yl)pyridazine-3-carboxamide]	–	4.9	> 50	950	–	25
Cc1cc(N2CCc3c(ncnc3Nc3ccc(C(C)(C)O)cn3)C2)ccc1C#N [Example 20, 4-(4-((5-(2-hydroxypropan-2-yl)pyridin-2-yl)amino)-5,6-dihydropyrido[3,4-d]pyrimidin-7(8H)-yl)-2-methylbenzonitrile]	480	−0.89	–	–	> 50	–
CC(C)(O)c1ccc(Nc2ncnc3c2CCN(c2ccc([N+](=O)[O-])c(C(F)(F)F)c2)C3)nc1 [Example 14, 2-(6-((7-(4-nitro-3-(trifluoromethyl)phenyl)-5,6,7,8-tetrahydropyrido[3,4-d]pyrimidin-4-yl)amino)pyridin-3-yl)propan-2-ol]	–	1.4	> 50	1200	–	70
CC(=O)N1CCN(CCCOc2ccc(Nc3ncnc4c3CCN(c3ccc(C#N)c(Cl)c3)C4)cc2C(F)(F)F)CC1 [Example 43, 4-(4-((4-(3-(4-acetylpiperazin-1-yl)propoxy)-3-(trifluoromethyl)phenyl)amino)-5,6-dihydropyrido[3,4-d]pyrimidin-7(8H)-yl)-2-chlorobenzonitrile]	–	8.4	> 50	380	–	300
COc1ccc(Nc2nc(C#N)nc3c2CCN(c2ccc(C#N)c(C(F)(F)F)c2)C3)cc1 [Example 47, 7-(4-Cyano-3-(trifluoromethyl)phenyl)-4-((4-methoxyphenyl)amino)-5,6,7,8-tetrahydropyrido[3,4-d]pyrimidine-2-carbonitrile]	–	−1.7	> 50	450	–	700
CNC(=O)c1ccc(Nc2ncnc3c2CCN(c2ccc(C#N)c(Cl)c2)C3)nc1F [Example 2, 6-((7-(3-chloro-4-cyanophenyl)-5,6,7,8-tetrahydropyrido[3,4-d]pyrimidin-4-yl)amino)-2-fluoro-N-methylnicotinamide]	–	–	> 50	290	–	33
CC(O)(CS(=O)(=O)c1ccc(F)cc1)C(=O)Nc1ccc(C#N)c(C(F)(F)F)c1 (stereo not shown) [Bicalutamide, reference compound]	–	36	< 10	2300	–	–
COc1cc(N2CCc3c(ncnc3Nc3ccc(C(C)(C)O)cn3)C2)ccc1[N+](=O)[O-] [Example 15, 2-(6-((7-(3-methoxy-4-nitrophenyl)-5,6,7,8-tetrahydropyrido[3,4-d]pyrimidin-4-yl)amino)pyridin-3-yl)propan-2-ol]	260	7.7	–	3000	–	–
N#Cc1ccc(N2CCc3c(ncnc3Nc3ccc(OCCCN4CCNCC4)c(C(F)(F)F)c3)C2)cc1Cl [Example 38, 2-chloro-4-(4-((4-(3-(piperazin-1-yl)propoxy)-3-(trifluoromethyl)phenyl)amino)-5,6-dihydropyrido[3,4-d]pyrimidin-7(8H)-yl)benzonitrile]	–	−1.3	–	120	–	950
CC(C)(O)c1ccc(Nc2ncnc3c2CCN(c2ccc([N+](=O)[O-])c(Cl)c2F)C3)nc1 [Example 18, 2-(6-((7-(3-chloro-2-fluoro-4-nitrophenyl)-5,6,7,8-tetrahydropyrido[3,4-d]pyrimidin-4-yl)amino)pyridin-3-yl)propan-2-ol]	1000	9.5	–	–	–	–
